Measured values published in the NIST ThermoML archive (doi:10.1016/j.jct.2010.06.008).

Test: xn = mol fraction of the nth substance listed
Settings: 101 kPa, Liquid; for speed of sound: Sing-around technique in a fixed-path interferometer; for mass density: Vibrating tube method

CC(C)CCl [1-chloro-2-methylpropane] + CCCCCC
Settings	mass density, 283.15 K [kg/m3]	mass density, 298.15 K [kg/m3]	mass density, 313.15 K [kg/m3]	speed of sound, 283.15 K [m/s]	speed of sound, 298.15 K [m/s]	speed of sound, 313.15 K [m/s]
x2 = 0	888.845	871.533	853.902	1141.7	1078.6	1016.3
x2 = 0.0512	874.715	857.627	840.236	1139.3	1075.9	1013.4
x2 = 0.0999	861.62	844.732	827.564	1137.3	1073.7	1011
x2 = 0.2003	835.641	819.166	802.454	1134	1070	1006.9
x2 = 0.2993	811.259	795.172	778.889	1131.9	1067.5	1003.9
x2 = 0.4005	787.516	771.817	755.943	1130.6	1065.8	1001.8
x2 = 0.4977	765.822	750.487	735.001	1130.5	1065.2	1000.6
x2 = 0.598	744.502	729.51	714.446	1131.3	1065.5	1000.4
x2 = 0.6993	723.963	709.35	694.648	1133	1066.7	1001.1
x2 = 0.799	704.731	690.452	676.142	1135.8	1069	1002.8
x2 = 0.8967	686.793	672.832	658.858	1139.6	1072.2	1005.6
x2 = 0.9472	677.811	664.036	650.244	1142	1074.3	1007.5

CC(C)CCl [1-chloro-2-methylpropane] + CCCCCCC
Settings	mass density, 283.15 K [kg/m3]	mass density, 298.15 K [kg/m3]	mass density, 313.15 K [kg/m3]	speed of sound, 283.15 K [m/s]	speed of sound, 298.15 K [m/s]	speed of sound, 313.15 K [m/s]
x2 = 0	888.845	871.533	853.902	1141.7	1078.6	1016.3
x2 = 0.0507	874.748	857.771	840.47	1142.2	1079.1	1016.8
x2 = 0.0979	862.133	845.448	828.448	1143	1079.8	1017.4
x2 = 0.2004	836.427	820.343	803.95	1145.4	1082.2	1019.6
x2 = 0.3008	813.265	797.726	781.886	1149	1085.5	1022.9
x2 = 0.3993	792.269	777.224	761.888	1153.4	1089.8	1027
x2 = 0.4999	772.383	757.812	742.952	1158.6	1094.9	1032
x2 = 0.5973	754.5	740.349	725.924	1164.4	1100.6	1037.5
x2 = 0.6994	737.065	723.337	709.345	1171.2	1107.2	1044
x2 = 0.8006	720.978	707.64	694.051	1178.7	1114.2	1051.1
x2 = 0.9002	706.284	693.212	679.976	1187	1122.3	1058.9
x2 = 0.9491	699.353	686.54	673.496	1191	1126.4	1062.7

CCCCCl [1-chlorobutane] + CCCCCC
Settings	mass density, 283.15 K [kg/m3]	mass density, 298.15 K [kg/m3]	mass density, 313.15 K [kg/m3]	speed of sound, 283.15 K [m/s]	speed of sound, 298.15 K [m/s]	speed of sound, 313.15 K [m/s]
x2 = 0	897.339	880.785	863.882	1180.1	1118.2	1056.9
x2 = 0.0508	882.878	866.478	849.768	1176	1113.8	1052.2
x2 = 0.0992	869.441	853.196	836.65	1172.3	1109.7	1047.9
x2 = 0.1972	843.152	827.205	810.995	1165.6	1102.4	1040
x2 = 0.2966	817.766	802.115	786.257	1159.7	1095.9	1032.8
x2 = 0.3976	793.168	777.821	762.288	1154.6	1090.2	1026.5
x2 = 0.5009	769.237	754.195	739.001	1150.5	1085.6	1021.2
x2 = 0.6006	747.205	732.45	717.601	1147.4	1081.8	1016.9
x2 = 0.6982	726.617	712.126	697.583	1145.2	1079.1	1013.6
x2 = 0.7972	706.669	692.488	678.241	1143.9	1077.2	1011.2
x2 = 0.8979	687.33	673.439	659.508	1143.7	1076.4	1009.8
x2 = 0.9472	678.205	664.449	650.666	1144.1	1076.4	1009.7

CCCCCl [1-chlorobutane] + CCCCCCC
mass density [kg/m3]
Settings	283.15 K	298.15 K	313.15 K
x2 = 0	897.339	880.785	863.882
x2 = 0.0508	882.735	866.442	849.802
x2 = 0.1017	868.636	852.592	836.205
x2 = 0.1981	843.549	827.947	812.014
x2 = 0.2989	819.278	804.127	788.662
x2 = 0.4022	796.314	781.594	766.57
x2 = 0.4998	776.207	761.86	747.232
x2 = 0.6008	756.852	742.869	728.632
x2 = 0.6989	739.334	725.722	711.853
x2 = 0.7985	722.761	709.483	695.957
x2 = 0.898	707.234	694.282	681.084
x2 = 0.9498	699.591	686.802	673.764

CC(C)(C)Cl [2-chloro-2-methylpropane] + CCCCCC
Settings	mass density, 283.15 K [kg/m3]	mass density, 298.15 K [kg/m3]	mass density, 313.15 K [kg/m3]	speed of sound, 283.15 K [m/s]	speed of sound, 298.15 K [m/s]	speed of sound, 313.15 K [m/s]
x2 = 0	855.249	837.096	818.536	1046.9	983.25	919.41
x2 = 0.0495	843.636	825.763	807.514	1049.8	985.59	922.06
x2 = 0.0989	832.389	814.802	796.851	1052.2	987.79	924.46
x2 = 0.2019	809.862	792.826	775.465	1058.6	993.98	930.06
x2 = 0.2987	789.789	773.235	756.4	1065.7	1000.7	936.45
x2 = 0.4043	768.847	752.8	736.513	1074.5	1009.1	944.41
x2 = 0.4985	751.114	735.482	719.653	1083.1	1017.5	952.34
x2 = 0.6024	732.382	717.205	701.869	1093.7	1027.6	962.01
x2 = 0.7017	715.376	700.606	685.731	1104.7	1038.2	972.24
x2 = 0.7996	699.305	684.94	670.488	1116.6	1049.7	983.31
x2 = 0.9025	683.186	669.222	655.21	1130.4	1063	996.24
x2 = 0.9498	676.073	662.283	648.468	1137.2	1069.5	1002.6

CC(C)(C)Cl [2-chloro-2-methylpropane] + CCCCCCC
Settings	mass density, 283.15 K [kg/m3]	mass density, 298.15 K [kg/m3]	mass density, 313.15 K [kg/m3]	speed of sound, 283.15 K [m/s]	speed of sound, 298.15 K [m/s]	speed of sound, 313.15 K [m/s]
x2 = 0	855.249	837.096	818.536	1046.9	983.25	919.41
x2 = 0.0519	843.365	825.671	807.559	1053	989.06	925.62
x2 = 0.1021	832.352	815.034	797.321	1059	995.16	931.82
x2 = 0.2015	811.803	795.208	778.248	1071.6	1007.9	944.63
x2 = 0.3006	792.846	776.886	760.618	1085.1	1021.5	957.98
x2 = 0.3997	775.339	759.908	744.157	1099.1	1035.7	972.04
x2 = 0.5027	758.514	743.587	728.394	1114.5	1051.1	987.29
x2 = 0.6011	743.606	729.156	714.479	1129.7	1066	1002.2
x2 = 0.7014	729.346	715.392	701.195	1145.5	1081.5	1017.8
x2 = 0.8007	716.295	702.832	689.124	1161.5	1097.1	1033.3
x2 = 0.8966	704.437	691.409	678.136	1177.4	1113.2	1049.5
x2 = 0.9518	697.935	685.122	672.064	1187	1122.5	1058.7
